# Results from article PMC3961306, “Comparison of the Cancer Gene Targeting and Biochemical Selectivities of All Targeted Kinase Inhibitors Approved for Clinical Use” (PLoS ONE, 2014).
# Tests used:
# Assay in all cases: Kinase profiling in a biochemical assay panel (mobility shift assays and ELISA), %-inhibition at 1 μM; selectivity entropy
# [1] = molecular target: T1, panel of more than 300 wild-type and mutant kinases (313 kinase panel) (Homo sapiens, UniProt O15111); conditions: kinase IKKα; compound at 1 μM
# T1 sequence (O15111 1-745): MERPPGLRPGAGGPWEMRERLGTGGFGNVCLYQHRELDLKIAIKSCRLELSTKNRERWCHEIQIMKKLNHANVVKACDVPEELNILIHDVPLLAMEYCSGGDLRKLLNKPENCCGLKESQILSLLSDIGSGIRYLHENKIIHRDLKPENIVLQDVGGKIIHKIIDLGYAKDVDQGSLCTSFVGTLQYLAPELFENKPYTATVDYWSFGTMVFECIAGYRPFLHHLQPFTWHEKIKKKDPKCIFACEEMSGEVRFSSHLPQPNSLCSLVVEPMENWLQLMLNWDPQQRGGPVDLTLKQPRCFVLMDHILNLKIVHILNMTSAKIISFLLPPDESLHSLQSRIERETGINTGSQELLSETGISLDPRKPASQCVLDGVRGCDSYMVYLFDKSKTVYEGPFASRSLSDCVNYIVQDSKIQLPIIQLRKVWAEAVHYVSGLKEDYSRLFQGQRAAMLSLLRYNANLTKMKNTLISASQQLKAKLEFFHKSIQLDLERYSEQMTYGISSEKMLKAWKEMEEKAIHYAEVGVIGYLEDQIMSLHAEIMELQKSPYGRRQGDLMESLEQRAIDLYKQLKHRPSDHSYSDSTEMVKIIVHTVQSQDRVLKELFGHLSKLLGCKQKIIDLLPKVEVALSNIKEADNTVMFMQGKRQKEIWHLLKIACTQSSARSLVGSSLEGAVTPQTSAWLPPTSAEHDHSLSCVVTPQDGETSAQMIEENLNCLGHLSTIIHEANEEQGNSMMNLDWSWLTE
# [2] = molecular target: panel of more than 300 wild-type and mutant kinases (313 kinase panel) (Homo sapiens, UniProt P49674)
# [3] = molecular target: T2, panel of more than 300 wild-type and mutant kinases (313 kinase panel) (Homo sapiens, UniProt P42681)
# T2 sequence (P42681 1-527): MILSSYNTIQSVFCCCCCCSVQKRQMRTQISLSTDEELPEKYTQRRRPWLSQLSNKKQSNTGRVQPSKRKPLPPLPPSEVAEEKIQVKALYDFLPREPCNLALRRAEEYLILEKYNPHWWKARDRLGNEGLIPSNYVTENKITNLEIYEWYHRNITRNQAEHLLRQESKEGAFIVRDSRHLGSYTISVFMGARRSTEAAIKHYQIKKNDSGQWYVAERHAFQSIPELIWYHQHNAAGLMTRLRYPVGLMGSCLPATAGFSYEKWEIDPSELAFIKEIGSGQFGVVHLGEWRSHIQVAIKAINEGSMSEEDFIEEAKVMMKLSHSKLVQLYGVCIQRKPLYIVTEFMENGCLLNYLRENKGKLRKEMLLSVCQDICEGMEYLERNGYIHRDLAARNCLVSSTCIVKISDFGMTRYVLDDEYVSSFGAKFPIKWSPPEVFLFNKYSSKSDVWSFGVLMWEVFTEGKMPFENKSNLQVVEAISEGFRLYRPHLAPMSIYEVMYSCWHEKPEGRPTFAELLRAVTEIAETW
# [4] = molecular target: panel of more than 300 wild-type and mutant kinases (313 kinase panel) (Homo sapiens, UniProt P24723); conditions: kinase PKCη; 1 μM
# Sequence of panel of more than 300 wild-type and mutant kinases (313 kinase panel) (Homo sapiens, UniProt P24723) (P24723 whole entry, change not shown): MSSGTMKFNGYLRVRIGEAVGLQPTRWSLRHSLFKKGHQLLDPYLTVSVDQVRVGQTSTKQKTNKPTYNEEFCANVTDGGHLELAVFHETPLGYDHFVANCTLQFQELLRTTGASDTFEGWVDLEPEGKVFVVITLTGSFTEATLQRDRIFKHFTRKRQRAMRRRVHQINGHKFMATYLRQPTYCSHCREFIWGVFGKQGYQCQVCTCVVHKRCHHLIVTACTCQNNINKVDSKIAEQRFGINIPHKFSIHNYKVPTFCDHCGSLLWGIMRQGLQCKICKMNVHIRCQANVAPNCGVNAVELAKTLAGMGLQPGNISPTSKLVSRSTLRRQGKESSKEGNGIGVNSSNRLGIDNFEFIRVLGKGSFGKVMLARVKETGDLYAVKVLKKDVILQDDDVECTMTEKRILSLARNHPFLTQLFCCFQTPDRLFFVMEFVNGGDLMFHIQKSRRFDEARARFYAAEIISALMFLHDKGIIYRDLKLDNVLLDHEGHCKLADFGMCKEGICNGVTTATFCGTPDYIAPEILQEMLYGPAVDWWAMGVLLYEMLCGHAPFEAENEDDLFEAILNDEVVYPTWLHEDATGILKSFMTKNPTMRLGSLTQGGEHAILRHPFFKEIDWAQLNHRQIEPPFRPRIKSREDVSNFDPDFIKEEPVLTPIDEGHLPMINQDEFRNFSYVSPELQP
# [5] = molecular target: panel of more than 300 wild-type and mutant kinases (313 kinase panel) (Homo sapiens, UniProt P06493); conditions: kinase CDC2/CycB1; 1 μM compound
# [6] = molecular target: panel of more than 300 wild-type and mutant kinases (313 kinase panel) (Homo sapiens, UniProt P42685); conditions: kinase FRK; compound at 1 μM
# Sequence of panel of more than 300 wild-type and mutant kinases (313 kinase panel) (Homo sapiens, UniProt P42685) (P42685 whole entry, change not shown): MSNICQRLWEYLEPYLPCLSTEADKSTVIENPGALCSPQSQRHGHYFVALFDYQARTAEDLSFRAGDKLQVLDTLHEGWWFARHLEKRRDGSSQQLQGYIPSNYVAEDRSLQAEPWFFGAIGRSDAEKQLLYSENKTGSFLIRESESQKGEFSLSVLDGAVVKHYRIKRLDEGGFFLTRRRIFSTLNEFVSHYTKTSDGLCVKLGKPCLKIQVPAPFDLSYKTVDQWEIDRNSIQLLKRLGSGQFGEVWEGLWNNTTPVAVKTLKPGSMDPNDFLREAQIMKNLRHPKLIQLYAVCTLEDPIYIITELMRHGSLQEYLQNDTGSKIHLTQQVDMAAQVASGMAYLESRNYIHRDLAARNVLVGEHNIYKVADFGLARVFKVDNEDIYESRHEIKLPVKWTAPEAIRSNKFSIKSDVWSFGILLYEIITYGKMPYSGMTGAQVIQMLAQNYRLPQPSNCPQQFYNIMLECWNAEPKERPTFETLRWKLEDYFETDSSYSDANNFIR
# [7] = molecular target: panel of more than 300 wild-type and mutant kinases (313 kinase panel) (Homo sapiens, UniProt P54646)
# [8] = molecular target: panel of more than 300 wild-type and mutant kinases (313 kinase panel) (Homo sapiens, UniProt Q9UM73)
# [9] = molecular target: panel of more than 300 wild-type and mutant kinases (313 kinase panel) (Homo sapiens, UniProt Q8TDX7)
# [10] = molecular target: T3, panel of more than 300 wild-type and mutant kinases (313 kinase panel) (Homo sapiens, UniProt Q96PN8); conditions: kinase TSSK3; compound at 1 μM
# T3 sequence (Q96PN8 1-268): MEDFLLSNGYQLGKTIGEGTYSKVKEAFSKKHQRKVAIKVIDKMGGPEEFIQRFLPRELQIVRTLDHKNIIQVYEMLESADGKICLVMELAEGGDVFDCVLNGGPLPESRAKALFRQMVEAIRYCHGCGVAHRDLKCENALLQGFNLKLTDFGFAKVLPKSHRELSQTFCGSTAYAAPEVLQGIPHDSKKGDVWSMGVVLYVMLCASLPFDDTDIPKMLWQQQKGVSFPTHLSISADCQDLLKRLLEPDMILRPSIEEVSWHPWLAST
# [11] = molecular target: panel of more than 300 wild-type and mutant kinases (313 kinase panel) (Homo sapiens, UniProt Q9H2X6)
# [12] = kinase AMPKα2/β1/γ1, 1 μM compound
SMILES,%-inhibition of IKKα [1],"%-inhibition, CK1ε ([2]; kinase CK1ε, 1 μM compound)","%-inhibition of TXK ([3]; kinase TXK, compound at 1 μM)",%-inhibition of PKCη [4],"%-inhibition, CDC2/CycB1 [5]",%-inhibition of FRK [6],"%-inhibition, AMPKα2/β1/γ1 [7, 12]","%-inhibition, ALK ([8]; kinase ALK, 1 μM compound)","%-inhibition of NEK7 ([9]; kinase NEK7, 1 μM)",%-inhibition of TSSK3 [10],"%-inhibition of HIPK2 ([11]; kinase HIPK2, compound at 1 μM)","%-inhibition, AMPKα2/β1/γ1 ([7]; 1 µM)","%-inhibition, ALK ([8]; 1 µM)",%-inhibition of HIPK2 ([11]; 1 µM),"%-inhibition, CK1ε ([2]; 1 µM)",%-inhibition of TXK ([3]; 1 µM),%-inhibition of NEK7 ([9]; 1 µM)
CC(=O)Nc1cccc(-n2c(=O)n(C3CC3)c(=O)c3c(Nc4ccc(I)cc4F)n(C)c(=O)c(C)c32)c1 [trametinib],2.63%,-5.38%,-4.66%,-8%,8%,-3%,1.21%,-2.82%,1.63%,-8%,0.155%,–,–,–,–,–,–
O=S(=O)(c1cccc2cnccc12)N1CCCNCC1 [fasudil],8%,-4.62%,1%,35%,6.46%,-3%,5%,-4.38%,-1.52%,-6%,-1.86%,–,–,–,–,–,–
N#CC[C@H](C1CCCC1)n1cc(-c2ncnc3[nH]ccc23)cn1 [ruxolitinib],-2.5%,7.39%,10%,-1.36%,0.106%,7%,–,–,-1.81%,-3%,–,7.49%,69%,9%,–,–,–
CCCS(=O)(=O)Nc1ccc(F)c(C(=O)c2c[nH]c3ncc(-c4ccc(Cl)cc4)cc23)c1F [vemurafenib],-1.89%,2.46%,5%,-22%,10%,62%,6.49%,1.14%,-3.56%,-3.19%,-5%,–,–,–,–,–,–
CNC(=O)c1cc(Oc2ccc(NC(=O)Nc3ccc(Cl)c(C(F)(F)F)c3)c(F)c2)ccn1 [regorafenib],-0.333%,-6%,-2.18%,-9%,0.529%,90%,16%,-3.43%,-13%,-4.39%,78%,–,–,–,–,–,–
CO[C@H]1C[C@@H]2CC[C@@H](C)[C@@](O)(O2)C(=O)C(=O)N2CCCC[C@H]2C(=O)O[C@H]([C@H](C)C[C@@H]2CC[C@@H](OC(=O)C(C)(CO)CO)[C@H](OC)C2)CC(=O)[C@H](C)/C=C(\C)[C@@H](O)[C@@H](OC)C(=O)[C@H](C)C[C@H](C)/C=C/C=C/C=C/1C [temsirolimus],1.39%,-7%,-7%,8%,-23%,-11%,-4%,-2%,-8%,-2.63%,0.538%,–,–,–,–,–,–
Cc1cn(-c2cc(NC(=O)c3ccc(C)c(Nc4nccc(-c5cccnc5)n4)c3)cc(C(F)(F)F)c2)cn1 [nilotinib],1.27%,0.595%,16%,5.43%,1%,70%,-0.54%,-8%,-3.77%,12%,16%,–,–,–,–,–,–
CS(=O)(=O)CCNCc1ccc(-c2ccc3ncnc(Nc4ccc(OCc5cccc(F)c5)c(Cl)c4)c3c2)o1 [lapatinib],-9%,–,–,2.46%,0.355%,0.586%,–,1.72%,–,0.192%,1.46%,-7.39%,–,–,1.64%,0.699%,-0.744%
